Reference: patent US20220313694A1, “REDUCED CALORIC INTAKE AND ANTICANCER AGENTS FOR THE TREATMENT OF CANCER” (IFOM FONDAZIONE ISTITUTO FIRC DI ONCOLOGIA MOLECOLARE, priority 2021, published 2022)

Experiments:
SUM159 tumour masses = experiment: Ex vivo mammosphere forming assay on SUM159 tumour masses; type: cell-based, human
[1] = test system: SUM159 tumour cells derived from in vivo xenografts; experiment: Limiting dilution assay in recipient NSG mice; design: species or system human
4T1-luc cells = experiment: Growth of 4T1-luc cells in the mammary fat pad of Balb-c mice; type: in vivo, mouse; details: 2DG once a day i.p. combined with 4 cycles of FMD
[2] = test system: 4T1 tumour masses (CD44highCD24low subpopulation); experiment: CD44CD24 flow cytometry of 4T1 tumour masses; type: in vivo, mouse; details: 2DG combined with FMD
Experimental: Cells were harvested and washed in PBS 1% BSA and pellets were resuspended in blocking buffer (PBS 10% BSA) and incubated for 30 min at 4° C. light protected. After a wash in PBS 1% BSA, cells were incubated with antibodies solution (200 μl/1×10^6 cells) for 45 min at 4° C. […] SUM159 samples were analysed by flow cytometry with Attune NxT flow cytometer and data were processed by Kaluza analysis software (Beckman coulter, version 2.0). 4T1 samples were analysed by flow cytometry with FACSCalibur (BD) and data were processed by FlowJo software.

SUM159 xenografts = experiment: Growth of SUM159 xenografts in NOD scid gamma (NSG) mice; details: agent combined with FMD cycles, compared with FMD or drug alone
4T1 cells = experiment: In vitro sphere forming assay, 4T1 cells under CTR/STS; type: cell-based, mouse; details: STS (0.5 g/l glucose, 1% FBS), 48 h; agent added (8-Br-cAMP; glucose 1 g/l)
[3] = tumour masses from mice treated with agent combined with FMD cycles
[4] = tumour masses from mice treated with drug under AL diet

Compound | number of ex vivo mammospheres (sphere formation) (SUM159 tumour masses; [3]) | number of ex vivo mammospheres (sphere formation) (SUM159 tumour masses; [4]) | time tumor formation was prevented ([1]; donor mice 2DG + FMD, 1,000 cells dilution level) | mouse survival in the limiting dilution assay ([1]; donor mice treated with 2DG + FMD) | tumor progression (4T1-luc cells) | CSCs (CD44 and CD24 expression) [2] | tumor progression / anti-tumor activity (SUM159 xenografts) | in vitro sphere formation (4T1 cells)
O=CC[C@@H](O)[C@H](O)[C@H](O)CO [2DG, 2-Deoxy-D-Glucose] | decreasing the number of mammospheres derived by tumor masses, even after a multiple serial propagation | did not have any effect under AL conditions | more than 150 days | potentiated the effect of FMD in increasing mouse survival compared to 2DG and FMD alone | potentiated the effect of FMD both in delaying tumor progression | reducing CSCs | potentiated the effect of FMD both in delaying tumor progression | –
Nc1ncnc2c1nc(Br)n2[C@@H]1O[C@@H]2COP(=O)(O)O[C@H]2[C@H]1O [8-Br-cAMP, 8-Bromoadenosine 3′,5′-cyclic mono-phosphate] | – | – | – | – | – | – | – | reversed fasting/STS-dependent spheres reduction
O=C(Oc1cccc(F)c1OC(=O)c1cccc(O)c1)c1cccc(O)c1 [WZB117] | – | mimicked the effect of FMD on reducing the number of spheres formation | – | – | – | – | did not potentiate the anti-tumor activity of FMD | –
OC[C@H]1OC(O)[C@H](O)[C@@H](O)[C@@H]1O (stereo partly drawn) [glucose] | completely rescued the FMD-dependent reduction of mammospheres | – | – | – | – | – | partially reversed the FMD effects on tumor progression | reversed the STS effect on 4T1 sphere formation
CN(C)C(=N)N=C(N)N [metformin] | – | reduced tumor growth and sphere formation | – | – | – | – | did not show any additive or synergistic antitumor effect when combined with the FMD | –
